Data taken from BindingDB's records for patent US9707233 (Incyte Holdings Corporation, 2017).

Molecular target: T1, Phosphatidylinositol 4,5-bisphosphate 3-kinase catalytic subunit delta isoform (Homo sapiens, UniProt O00329)
T1 sequence (O00329 whole entry): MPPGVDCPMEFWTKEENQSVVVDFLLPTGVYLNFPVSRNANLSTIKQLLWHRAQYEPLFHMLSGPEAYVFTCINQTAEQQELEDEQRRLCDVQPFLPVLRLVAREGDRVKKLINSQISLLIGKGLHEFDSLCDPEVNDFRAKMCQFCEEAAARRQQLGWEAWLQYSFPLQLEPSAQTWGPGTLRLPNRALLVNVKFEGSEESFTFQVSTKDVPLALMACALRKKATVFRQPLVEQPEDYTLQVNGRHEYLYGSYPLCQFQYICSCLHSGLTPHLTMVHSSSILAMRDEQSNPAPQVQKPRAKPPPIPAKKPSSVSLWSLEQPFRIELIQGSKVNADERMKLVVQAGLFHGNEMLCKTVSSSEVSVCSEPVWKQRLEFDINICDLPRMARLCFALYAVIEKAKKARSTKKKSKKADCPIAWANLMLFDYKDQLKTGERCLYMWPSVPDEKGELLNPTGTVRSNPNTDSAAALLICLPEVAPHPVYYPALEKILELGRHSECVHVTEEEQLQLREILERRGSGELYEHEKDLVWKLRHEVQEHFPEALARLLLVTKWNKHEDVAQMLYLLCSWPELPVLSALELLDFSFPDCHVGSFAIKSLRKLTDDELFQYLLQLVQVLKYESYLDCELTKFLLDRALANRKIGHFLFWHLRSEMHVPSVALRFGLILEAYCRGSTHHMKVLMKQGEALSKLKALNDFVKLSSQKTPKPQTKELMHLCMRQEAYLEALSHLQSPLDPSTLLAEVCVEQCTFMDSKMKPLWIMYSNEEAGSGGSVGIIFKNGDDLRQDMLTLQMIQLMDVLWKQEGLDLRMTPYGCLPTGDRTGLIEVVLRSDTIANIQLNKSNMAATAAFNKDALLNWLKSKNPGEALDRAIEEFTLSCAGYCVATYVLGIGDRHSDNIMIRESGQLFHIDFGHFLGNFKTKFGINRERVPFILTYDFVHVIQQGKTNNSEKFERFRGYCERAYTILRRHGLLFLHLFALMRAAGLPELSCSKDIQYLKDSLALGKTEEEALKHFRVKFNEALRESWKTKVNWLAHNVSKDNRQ
Assay: A2 PI3Kdelta Scintillation Proximity Assay
Conditions: pH 6.7; 25 °C
Procedure: PI3K isoforms α, β, δ and γ are purchased from Millipore (Bedford, Mass.). […] Inhibitors are first diluted serially in DMSO and added to the plate wells before the addition of other reaction components. The final concentration of DMSO in the assay is 0.5%. The PI3K assays are carried out at room temperature in 20 mM MOPS, pH 6.7, 10 mM MgCl2, 5 mM DTT and CHAPS 0.03%. The reaction mixture is prepared containing 50 μM PIP2, kinase and varying concentration of inhibitors. […] Reactions are incubated for 180 minutes and terminated by the addition of 100 μL of 1 M potassium phosphate pH 8.0, 30 mM EDTA quench buffer. A 100 μL aliquot of the reaction solution are then transferred to 96-well Millipore MultiScreen IP 0.45 μm PVDF filter plate (The filter plate is prewetted with 200 μL 100% ethanol, distilled water, and 1 M potassium phosphate pH 8.0, respectively). […] After drying by aspiration and blotting, the plate is air dried in an incubator at 37° C. overnight. Packard TopCount adapter (Millipore) is then attached to the plate followed with addition of 120 μL Microscint 20 scintillation cocktail (Perkin Elmer) in each well. After the plate sealing, the radioactivity of the product is determined by scintillation counting on Topcount (Perkin-Elmer). […]

SMILES	IC50 [µM]
COc1c(C(C)n2nc(C)c3c(N)ncnc32)cc(Cl)c(C)c1C1CN(CC(F)F)C1 (single isomer, unassigned) [US9707233, 112]	< 0.01
CCOc1c(C(C)n2nc(C)c3c(N)ncnc32)cc(Cl)c(C#N)c1C1CN(C(C)(C)C(=O)N(C)C)C1 (single isomer, unassigned) [US9707233, 241]	< 0.01
